Reference: BindingDB's records for patent US20250129104 (Biosplice Therapeutics, 2025)

Target: Dual specificity tyrosine-phosphorylation-regulated kinase 1A (Homo sapiens, UniProt Q13627)
Assay: DYRK1A Kinase Assay
Procedure: Each compound was dissolved in DMSO as a 10 mM stock and used to prepare compound source plates. Serial dilution (1:3, 11-point dose-response curves from 10 μM to 0.00016 μM) and compound transfer was performed using the ECHO 550 (Labcyte, Sunnyvale, CA) into 1536-well black-walled round bottom plates (Corning).The DYRK1A kinase assay was run using the Ser/Thr 18 peptide Z-lyte assay kit according to manufacturer's instructions (Life Technologies—a Division of Thermo-Fisher). This is a non-radioactive assay using fluorescence resonance energy transfer (FRET) between coumarin and fluorescein to detect kinase activity which is represented as a ratio of coumarin emission/fluorescein emission.Briefly, recombinant DYRK1A kinase, ATP and Ser/Thr peptide 18 were prepared in 1× Kinase buffer to final concentrations of 0.25 μg/mL, 15 μM, and 4 μM respectively. The mixture was allowed to incubate with the representative compounds for one hour at room temperature. All reactions were performed in duplicate. Unphosphorylated (“0% Control”) and phosphorylated (“100% control”) forms of Ser/Thr 18 served as control reactions. Additionally, an 11-point dose-response curve of Staurosporine (1 uM top) was run to serve as a positive compound control.After incubation, Development Reagent A was diluted in Development Buffer then added to the reaction and allowed to further incubate for one hour at room temperature. The plate was read at Ex 400 Em 455 to detect the coumarin signal and Ex 400 Em 520 to measure the signal (EnVision Multilabel Plate Reader, PerkinElmer).

EC50 [nM]	SMILES
35.2	C[C@]1(O)CC[C@H](Nc2ncc3c(-c4ccn5nccc5c4)c[nH]c3n2)CC1 [US20250129104, Compound 2238]
1.4	COc1nc(N[C@H]2CC[C@@](C)(O)CC2)nc2[nH]cc(-c3ccc4ncnn4c3)c12 [US20250129104, Compound 3053]
5440	COc1nc(N[C@H](C)C(F)(F)F)c2c(-c3ccc4nc(C)n(CC(F)F)c4n3)c[nH]c2n1 [US20250129104, Compound 2817]
